Assay results as given in publication PMC9571264 (Molecules, 2022).

What was measured:
Liver Cancer HepG2 = experiment: MTT cytotoxicity assay, HepG2; type: cell-based, human; settings: Homo sapiens, HepG2, 48 h, read-out: IC50 (µM) ± SEM, Liver Cancer HepG2
Experimental: (§1) Cytotoxic activities of the synthesized derivatives were screened against leukemia (HL60), liver (HepG2), breast (MCF-7), and lung (A549) cancer cell lines and non-cancerous THLE2 and WISH cells at different concentrations [0.01–100 µM] for 48 h using the MTT assay (Table 1).
(§2) Human promyelocytic leukemia ”HL-60”, human hepatocellular carcinoma “HepG2”, human breast cancer “MCF-7”, human lung cancer “A549” cell lines, and two normal cell lines, THLE-2 as normal adult liver epithelial cells and WISH as normal epithelial cells, were obtained from American Type Culture Collection “Rockville, MD, USA”.
(§3) According to the manufacturer’s protocol, the cells were seeded in 96-well plates at a concentration of 5 × 10^4 cells per well (200 µL). Different concentrations of the tested compounds were used to test the cytotoxicity. […] A non-linear regression of curve fit was used to calculate the IC50.

Leukemia Cancer HL60 = experiment: MTT cytotoxicity assay, HL60; type: cell-based; settings: Homo sapiens, HL-60, 48 h, read-out: IC50 (µM) ± SEM, Leukemia Cancer HL60
Experimental: as §1, §2, §3

HepG2 cancer cells [1] = experiment: Annexin-V-FITC/PI apoptosis/necrosis flow cytometry, HepG2; type: cell-based, human; settings: HepG2, IC50 = 13.14 μM, 48 h
Experimental: (§4) (See supplementary information for the detailed methodology of flow cytometric analyses, including “FITC/Annexin-V-FITC/PI differential apoptosis/necrosis”, “DNA content-flow cytometry aided cell cycle”, and “Caspase 3/7 green flow cytometry”).
Supplementary materials for detailed methodology
2.2.2.1. Flow cytometric analysis
2.2.2.1.1. FITC/Annexin-V-FITC/PI Differential Apoptosis/Necrosis Assessment Apoptosis and necrosis cell populations are determined using Annexin V-FITC apoptosis detection kit (Abcam Inc., Cambridge Science Park, Cambridge, UK) coupled with 2 fluorescent channels flowcytometry. After treatment with test compounds for 48 h, cells (10^5 cells) are collected by trypsinization and washed twice with ice-cold PBS (pH 7.4). Then, cells are incubated in dark with 0.5 ml of Annexin V-FITC/PI solution for 30 min in dark at room temperature according to manufacturer protocol. After staining, cells are injected via ACEA Novocyte™ flowcytometer (ACEA Biosciences Inc., San Diego, CA, USA) and analyzed for FITC and PI fluorescent signals using FL1 and FL2 signal detector, respectively (λex/em 488/530 […]
nm for FITC and λex/em 535/617 nm for PI). […]
NovoExpress™ software (ACEA Biosciences Inc., San Diego, CA, USA).
(§5) 2.2.2.1.3. Caspase- 3/7 green flow cytometry assay
(§6) The ability of compounds 4 and 9 to induce the enzymatic activities of caspase 3/7 in HL60 and HepG2 respectively were assayed using caspase 3/7 green flow cytometry assay method. Briefly, control and the tested compounds treated cells (2.5x10^5/mL) were rinsed with ice cold PBS, cell lysates were prepared and subsequently protein

HepG2 cancer cells [2] = experiment: DNA content-flow cytometry cell-cycle analysis, HepG2; type: cell-based, human; settings: HepG2, IC50 = 13.14 μM, 48 h
Experimental: as §4
Supplementary materials for detailed methodology […]
2.2.2.1.2. DNA Content-Flow Cytometry Aided Cell Cycle Analysis
After treatment with test compounds for 48 h, cells (10^5 cells) are collected by trypsinization and washed twice with ice-cold PBS (pH 7.4). Cells are re-suspended in two milliliters of 60% ice-cold ethanol and incubated at 4 °C for 1 h for fixation. Fixed cells are washed twice again with PBS (pH 7.4) and re-suspended in 1 mL of PBS containing 50 μg/mL RNAase A and 10 μg/mL propidium iodide (PI). After 20 min of incubation in dark at 37 C, cells are analyzed for DNA contents using flow cytometry analysis using FL2 (λex/em 535/617 nm) signal detector (ACEA Novocyte™ flowcytometer, ACEA Biosciences Inc., San Diego, CA, USA). For each sample, 12,000 events are acquired. Cell cycle distribution is calculated using ACEA NovoExpress™ software (ACEA Biosciences Inc., San Diego, CA, USA).
as §5, §6

Normal Liver THLE2 = experiment: MTT cytotoxicity assay, normal THLE2; type: cell-based; settings: Homo sapiens, THLE-2, 48 h, read-out: IC50 (µM) ± SEM, Normal Liver THLE2
Experimental: as §1, §2, §3

HepG2 cells = experiment: Agarose gel electrophoresis DNA fragmentation, HepG2; type: cell-based, human
[3] = tested on: P53, Bax, Caspase 3, Caspase 7, PI3k, AKT, and Bcl-2 mRNA in HepG2 cells; experiment: RT-PCR relative mRNA expression of apoptosis-related genes, HepG2; type: cell-based, human; settings: HepG2, IC50 = 13.14 μM, 48 h; versus β-actin; untreated control = 1
Normal WISH Cells = experiment: MTT cytotoxicity assay, normal WISH; type: cell-based; settings: 48 h, read-out: IC50 (µM) ± SEM, Normal WISH Cells
Experimental: as §1, §2, §3

Lung Cancer A549 = experiment: MTT cytotoxicity assay, A549; type: cell-based; settings: Homo sapiens, 48 h, read-out: IC50 (µM) ± SEM, Lung Cancer A549
Experimental: as §1, §2, §3

Breast Cancer MCF-7 = experiment: MTT cytotoxicity assay, MCF-7; type: cell-based; settings: Homo sapiens, MCF7, 48 h, read-out: IC50 (µM) ± SEM, Breast Cancer MCF-7
Experimental: as §1, §2, §3

Cc1c(Br)c(=O)oc2c(Br)c(OC(=O)/C=C/c3ccccc3)c(Br)cc12 [Compound 8b, (2E)-3,6,8-Tribromo-4-methyl-2-oxo-2H-chromen-7-yl Cinnamate]
IC50 (Liver Cancer HepG2): 13.1 ± 0.22 µM
IC50 (Leukemia Cancer HL60): 69 ± 2.14 µM
Increase of apoptotic cell death versus control (HepG2 cancer cells [1]): 6.88 fold
Increase of necrosis-mediated cell death versus control (HepG2 cancer cells [1]): 1.66 fold
Necrosis, cell percentage (HepG2 cancer cells [1]; control 0.96%): 1.59%
pre-G1 cell population (HepG2 cancer cells [2]; control 1.71%): 12.56%
G2/M cell population (HepG2 cancer cells [2]; control 12.34%): 26.05%
G0/G1 cell population (HepG2 cancer cells [2]; control 53.6%): 42.53%
IC50 (Normal Liver THLE2): 86.5 ± 2.16 µM
DNA fragmentation (HepG2 cells): Loss of intact DNA fragments
AKT relative mRNA expression [3]: 0.72 fold
Bax relative mRNA expression [3]: 1.51 fold
Bcl-2 relative mRNA expression [3]: 0.75 fold
P53 relative mRNA expression [3]: 3.89 fold
PI3K relative mRNA expression [3]: 0.75 fold
caspase 3 relative mRNA expression [3]: 4.63 fold
caspase 7 relative mRNA expression [3]: 3.63 fold
IC50 (Normal WISH Cells): 96.8 ± 3.21 µM
IC50 (Lung Cancer A549): 4.63 ± 0.16 µM
IC50 (Breast Cancer MCF-7): 7.35 ± 0.67 µM
